One test addresses CDK2 cyA (Homo sapiens, UniProt P24941). Put plainly: CDK2 cyA IMAP. The class given is biochemical. To be noted: Table 2; read-out: CDK2cyA IMAP/ IC50.
A further test addresses hCDK1/B (Homo sapiens, UniProt P06493). Put plainly: hCDK1/B. To be noted: Table 2. In kind it is biochemical.
A further test deals with CDK4 (Homo sapiens, UniProt P11802). Put plainly: CDK4 HTRF. The class given is biochemical. Conditions: Table 2; read-out: CDK4 HTRF/ IC50.
In a further test the test system is p-pRb/S780. In words: p-pRb/S780 ELISA Cellular Assay (CDK4 ELISA assay). Conditions: Table 2; cells treated for 24 hrs; read-out: p_pRb Cap EL/ IC50_ppRbinh. The class given is cell-based. Here is the method: Biological Activity p-pRb/S780 ELISA Cellular Assay
Maxisorp plates (Nunc 442404) are coated with 50 ul of 1 ug/mL total phospholated Retinoblast Protein (pRb) antibody (4H1 Cell Signaling 9309L) diluted in DPBS (Phosphate Buffered Saline) overnight at 4° C. The next day plates are blocked with Superblock in TBST (Pierce 37535) for one hour to overnight—changing block once during that time. Cells are plated at 50-60% confluency in a 96 well plate (Corning 3585) in 100 uL complete media (media containing fetal bovine serum (Gibco 1600-044), 2 mM L-Glutamine (Gibco 25030), and 1% Penicillin/Streptomycin (Gibco 15140-122) and grown overnight in a humidified chamber at 37° C. and 5% CO2. Compounds (in DMSO) are diluted in media to create a 7 point dilution series of compound with concentrations ranging from 110 uM to 0.027 uM. 10 ul of the diluted compounds are added to the cells, with final concentrations on cells ranging from 10 uM to 0.002 uM. Cells are treated for 24 hrs in a humidified chamber at 37° C. and 5% CO2. Following compound incubation, cells are lysed with 40 uL/well lysis buffer (50 mM Tris-HCL pH 7.5 (Invitrogen 15567-027), 120 mM NaCl (Promega V4221), 1 mM EDTA (Gibco 15575-038), 6 mM EGTA (Fisher 02783-100), 1% Nonidet P40 (Fluka R02771). Plates are placed on Titerplate shaker (Labline model 4625) for 5 minutes at 4° C. to lyse cells. After lysis, 10 ul of cell lysate and 50 ul 1×PBS/10% Superblock (Gibco 10010 and Pierce 37535) is added to each well of the precoated and blocked Maxisorp plate and allowed to bind at room temperature for 2 hours on Oribtron Rotator II (Boekel Industries Model 260250). Plates are then washed 3× with 1×TBST (Teknova T9201) using Biotek platewasher equipped with a Biostack. The final wash is not aspirated. The final wash is removed by flicking off and tapping plate on paper towels. ppRbS780 antibody (Cell Signaling 9307L) is diluted 1:1000 in 1×PBS/10% Superblock (Gibco 10010 and Pierce 37535) and 50 ul is added to each well. Plates are then incubated 1 hour on Oribtron Rotator II (Boekel Industries Model 260250). Plates are then washed as previously described. Goat anti-rabbit HRP (Promega W401B) is diluted 1:2500 1×PBS/10% Superblock (Gibco 10010 and Pierce 37535) and 50 ul is added to each well. Plates are then incubated 30 minutes on Oribtron Rotator II. Plates are then washed as previously described. 50 uL Ultra TMB ELISA (Pierce 34028) is then added to each well. Plates are incubated 5-20 minutes until blue color develops. 50 ul 2M Sulfuric acid (Mallinckrodt 2468-46) is then added to each well to stop the reaction. Absorbance at 450 nm for each plate is read on Spectramax Plus (Molecular Devices).
A general note: ELISA stands for enzyme-linked immunosorbent assay.

Sequence of hCDK1/B (P06493 whole entry): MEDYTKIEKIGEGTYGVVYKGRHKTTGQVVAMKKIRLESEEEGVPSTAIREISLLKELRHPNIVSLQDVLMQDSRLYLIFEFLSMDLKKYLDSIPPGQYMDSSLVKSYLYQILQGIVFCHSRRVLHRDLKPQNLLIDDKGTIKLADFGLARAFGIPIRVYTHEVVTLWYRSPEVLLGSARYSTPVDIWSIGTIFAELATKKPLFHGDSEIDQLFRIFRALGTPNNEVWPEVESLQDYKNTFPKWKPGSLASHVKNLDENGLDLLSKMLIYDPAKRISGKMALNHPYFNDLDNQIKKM
Sequence of hCDK1/B (P14635 whole entry partner): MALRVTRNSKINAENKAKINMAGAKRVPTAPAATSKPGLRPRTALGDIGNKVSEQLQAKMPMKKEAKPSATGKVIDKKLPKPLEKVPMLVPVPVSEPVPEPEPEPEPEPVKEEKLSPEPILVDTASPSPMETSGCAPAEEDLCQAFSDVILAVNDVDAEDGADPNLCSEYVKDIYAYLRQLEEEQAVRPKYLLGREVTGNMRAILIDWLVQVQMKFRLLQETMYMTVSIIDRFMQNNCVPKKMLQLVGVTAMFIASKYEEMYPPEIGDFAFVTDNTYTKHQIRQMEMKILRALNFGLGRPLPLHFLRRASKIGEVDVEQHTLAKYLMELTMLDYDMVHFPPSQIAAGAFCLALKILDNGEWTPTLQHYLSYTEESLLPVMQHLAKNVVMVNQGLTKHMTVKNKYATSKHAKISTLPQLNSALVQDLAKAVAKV
Sequence of CDK4 (P11802 whole entry): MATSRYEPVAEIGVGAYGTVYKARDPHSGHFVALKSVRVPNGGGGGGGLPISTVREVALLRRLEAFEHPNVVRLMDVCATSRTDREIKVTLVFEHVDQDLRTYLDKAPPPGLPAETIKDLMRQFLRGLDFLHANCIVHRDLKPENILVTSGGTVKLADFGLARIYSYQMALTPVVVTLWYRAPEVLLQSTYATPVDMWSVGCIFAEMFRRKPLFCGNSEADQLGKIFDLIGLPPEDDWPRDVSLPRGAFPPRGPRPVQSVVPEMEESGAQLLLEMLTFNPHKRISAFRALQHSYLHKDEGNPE
Sequence of CDK4 (P24385 whole entry partner): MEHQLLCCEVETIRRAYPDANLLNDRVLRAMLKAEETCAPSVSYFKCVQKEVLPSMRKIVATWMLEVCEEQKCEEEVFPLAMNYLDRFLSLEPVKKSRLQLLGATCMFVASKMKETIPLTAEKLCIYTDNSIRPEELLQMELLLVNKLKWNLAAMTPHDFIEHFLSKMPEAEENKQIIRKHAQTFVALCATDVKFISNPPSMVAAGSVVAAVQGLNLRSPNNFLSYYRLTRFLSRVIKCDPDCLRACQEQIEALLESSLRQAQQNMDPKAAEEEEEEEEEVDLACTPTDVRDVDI

On to `Cc1cc(C)n(CCNc2nccc(-c3c[nH]nc3C(C)C)n2)n1` [Example 149], for which the IC50 on CDK2 cyA was below 15 µM; at hCDK1/B it was below 10 µM; on CDK4, below 5 µM; in the test with p-pRb/S780, below 15 µM.
Turning to `CCC(Nc1nccc(-c2c[nH]nc2C(C)C)n1)c1ccccc1` (centres unmarked) [Example 151], the IC50 is below 5 µM on CDK2 cyA, below 1 µM against hCDK1/B, below 0.5 µM at CDK4 and below 10 µM in the test on p-pRb/S780.
For `COc1cccc(OC)c1CNc1nccc(-c2c[nH]nc2C(C)C)n1` [Example 156] the same measures were at least 15 µM, at least 15 µM, below 15 µM and below 15 µM.
Take `CC(C)c1n[nH]cc1-c1ccnc(NC2CN3CCC2CC3)n1` (centres unmarked) [Example 159]: the IC50 at CDK2 cyA is below 5 µM; against hCDK1/B, below 0.5 µM; on CDK4 it was below 0.05 µM; in the test on p-pRb/S780 it was below 5 µM.
With `CC(C)c1n[nH]cc1-c1ccnc(NC2CCCCC2C)n1` (centres unmarked) [Example 160], the IC50 was below 1 µM on CDK2 cyA, below 0.5 µM against hCDK1/B, below 0.1 µM on CDK4 and below 5 µM in the test on p-pRb/S780.
The matching figures for `CC(C)CNc1nccc(-c2c[nH]nc2C(C)C)n1` [Example 163]: below 0.1 µM, below 0.5 µM, below 0.1 µM and below 5 µM.
As to `CC(C)c1n[nH]cc1-c1ccnc(NC2CCCCC2)n1` [Example 166], the IC50 is below 0.05 µM at CDK2 cyA, below 0.05 µM on hCDK1/B, below 0.05 µM on CDK4 and below 1 µM in the test with p-pRb/S780.
As for `CC(C)c1n[nH]cc1-c1ccnc(NC2CCCc3ccccc32)n1` (centres unmarked) [Example 169], the IC50 is below 1 µM on CDK2 cyA, below 5 µM on hCDK1/B, below 0.05 µM on CDK4 and below 5 µM in the test on p-pRb/S780.
Consider `CC(C)c1n[nH]cc1-c1ccnc(NC2Cc3ccccc3C2)n1` [Example 170], for which the IC50 at CDK2 cyA was below 0.5 µM; against hCDK1/B, below 0.5 µM; at CDK4, below 0.05 µM; in the test on p-pRb/S780, below 5 µM.
Take `CC(C)c1n[nH]cc1-c1ccnc(NC2CCc3ccccc32)n1` (centres unmarked) [Example 174]: the IC50 on CDK2 cyA is below 1 µM; on hCDK1/B, below 1 µM; at CDK4 it was below 0.05 µM; with p-pRb/S780 it was below 5 µM.
Take `CC(C)c1n[nH]cc1-c1ccnc(N[C@@H]2CCc3ccccc32)n1` [Example 176, (R)-Indan-1-yl-[4-(3-isopropyl-1H-pyrazol-4-yl)-pyrimidin-2-yl]-amine]: the IC50 was below 0.5 µM on CDK2 cyA, below 0.5 µM at hCDK1/B, below 0.05 µM at CDK4 and below 1 µM with p-pRb/S780.
On to `CC(C)c1n[nH]cc1-c1ccnc(N[C@@H]2CCCc3ccccc32)n1` [Example 177], for which the IC50 is below 0.5 µM on CDK2 cyA, below 5 µM on hCDK1/B, below 0.05 µM on CDK4 and below 1 µM with p-pRb/S780.
The matching figures for `CC(C)c1n[nH]cc1-c1ccnc(N[C@H]2CCCc3ccccc32)n1` [Example 178]: at least 15 µM, below 10 µM, below 5 µM and below 15 µM.
For `CC(C)c1n[nH]c(Br)c1-c1ccnc(NC2CCN(C)CC2)n1` [Example 179] the same measures were below 5 µM, below 5 µM, below 0.1 µM and below 1 µM.
The matching figures for `CC(C)c1n[nH]cc1-c1ccnc(NC2CCC(C)(C)c3ccccc32)n1` (centres unmarked) [Example 188]: at least 15 µM, at least 15 µM, below 0.1 µM and below 5 µM.
With `CC(C)c1n[nH]cc1-c1ccnc(NC2CCc3cc(F)ccc32)n1` (centres unmarked) [Example 189], the IC50 on CDK2 cyA was below 0.5 µM; against hCDK1/B it was below 0.5 µM; at CDK4, below 0.1 µM; in the test on p-pRb/S780, below 1 µM.
With `CC(C)c1n[nH]cc1-c1ccnc(NC2CCc3cc(Cl)ccc32)n1` (centres unmarked) [Example 190], the IC50 at CDK2 cyA is below 0.5 µM; against hCDK1/B, below 5 µM; at CDK4 it was below 0.5 µM; with p-pRb/S780, below 5 µM.

Values taken from US8367687B2, “Pyrazole derivatives” (Novartis AG, priority 2007, dated 2013).
